Data on nine compounds can be found in US7566727B2, “2-(1-aza-bicyclo[2.2.2]oct-3-yl)-2,3-dihydro-isoindole-1-one/5,6-dihydro-furo[2,3-c] pyrrol-4-one derivative ligands for alpha 7 nicotinic acetylcholine receptor” (priority 2004, dated 2009).

For the assay, the target named is α7 nAChR subtype (Rattus norvegicus, UniProt Q05941). As to the kind of experiment: Test A: 125I-α-Bungarotoxin binding to rat hippocampal membranes (affinity at α7 nAChR subtype). The settings on record: [125I]α-BTX displacement, rat hippocampal membranes. Here is the method: Test A—Assay for Affinity at α7 nAChR subtype
α7 nAChR subtype, sequence (Q05941 23-502): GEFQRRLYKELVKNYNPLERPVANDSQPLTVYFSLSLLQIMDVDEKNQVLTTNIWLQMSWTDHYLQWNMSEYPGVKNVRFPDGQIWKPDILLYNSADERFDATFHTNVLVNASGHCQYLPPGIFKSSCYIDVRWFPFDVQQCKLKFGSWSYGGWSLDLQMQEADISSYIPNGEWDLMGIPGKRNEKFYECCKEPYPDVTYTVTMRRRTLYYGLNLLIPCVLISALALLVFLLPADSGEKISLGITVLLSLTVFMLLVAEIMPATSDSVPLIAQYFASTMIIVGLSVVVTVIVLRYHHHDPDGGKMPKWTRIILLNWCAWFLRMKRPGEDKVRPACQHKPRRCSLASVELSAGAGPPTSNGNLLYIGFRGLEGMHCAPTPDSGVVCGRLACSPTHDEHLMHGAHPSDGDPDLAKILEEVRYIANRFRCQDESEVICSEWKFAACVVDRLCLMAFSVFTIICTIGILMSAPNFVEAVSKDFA
125I-α-Bungarotoxin (BTX) binding to rat hippocampal membranes. Rat hippocampi were homogenized in 20 volumes of cold homogenization buffer (HB: concentrations of constituents (mM): tris(hydroxymethyl)aminomethane 50; MgCl2 1; NaCl 120; KCl 5: pH 7.4). The homogenate was centrifuged for 5 minutes at 1000 g, the supernatant was saved and the pellet re-extracted. The pooled supernatants were centrifuged for 20 minutes at 12,000 g, washed, and re-suspended in HB. Membranes (30-80 μg) were incubated with 5 nM [^125I] α-BTX, 1 mg/mL BSA (bovine serum albumin), test drug, and either 2 mM CaCl2 or 0.5 mM EGTA [ethylene glycol-bis(β-aminoethylether)] for 2 hours at 21° C., and then filtered and washed 4 times over Whatman glass fibre filters (thickness C) using a Brandel cell harvester.
Binding data analysis for Tests A and B
IC50 values and pseudo Hill coefficients (nH) were calculated using the non-linear curve fitting program ALLFIT (DeLean A, Munson P J and Rodbard D (1977) Am. J. Physiol., 235:E97-E102). […] Ki values were determined using 6 or more drug concentrations.
Regarding `O=C(Nc1cccc(-c2ccc3c(c2)C(=O)N([C@H]2CN4CCC2CC4)C3)c1)c1ccccc1` [Example 64, N-[3-((R)-2-1-Aza-bicyclo[2.2.2]oct-3-yl-3-oxo-2,3-dihydro-1H-isoindol-5-yl)-phenyl]-benzamide], the affinity, expressed as Ki, was 0.0039 µM. On to `CC(=O)Nc1ccccc1-c1ccc2c(c1)C(=O)N([C@H]1CN3CCC1CC3)C2` [Example 65, N-[2-((R)-2-1-Aza-bicyclo[2.2.2]oct-3-yl-3-oxo-2,3-dihydro-1H-isoindol-5-yl)-phenyl]-acetamide], for which the affinity, expressed as Ki, was 1.15 µM. Regarding `CCN(CC)C(=O)c1cccc(-c2ccc3c(c2)C(=O)N([C@H]2CN4CCC2CC4)C3)c1` [Example 66, 3-((R)-2-1-Aza-bicyclo[2.2.2]oct-3-yl-3-oxo-2,3-dihydro-1H-isoindol-5-yl)-N,N-diethyl-benzamide], the Ki (as a rule, a dissociation constant, usually derived from enzyme kinetics or from competition with a known ligand) is 0.02 µM. `O=C1c2cc(-c3cccc(OCc4ccccc4)c3)ccc2CN1[C@H]1CN2CCC1CC2` [Example 67, 2-(R)-1-Aza-bicyclo[2.2.2]oct-3-yl-6-(3-benzyloxy-phenyl)-2,3-dihydro-isoindol-1-one] had a Ki of 0.051 µM.

As to `O=C(c1cccc(-c2ccc3c(c2)C(=O)N([C@H]2CN4CCC2CC4)C3)c1)N1CCOCC1` [Example 68, 2-(R)-1-Aza-bicyclo[2.2.2]oct-3-yl-6-[3-(morpholine-4-carbonyl)-phenyl]-2,3-dihydro-isoindol-1-one], the Ki came to 0.044 µM. On to `O=C(c1cccc(-c2ccc3c(c2)C(=O)N([C@H]2CN4CCC2CC4)C3)c1)N1CCCCC1` [Example 69, 2-(R)-1-Aza-bicyclo[2.2.2]oct-3-yl-6-[3-(piperidine-1-carbonyl)-phenyl]-2,3-dihydro-isoindol-1-one], for which the Ki was found to be 0.023 µM. In turn, `O=C(c1cccc(-c2ccc3c(c2)C(=O)N([C@H]2CN4CCC2CC4)C3)c1)N1CCCC1` [Example 70, 2-(R)-1-Aza-bicyclo[2.2.2]oct-3-yl-6-[3-(pyrrolidine-1-carbonyl)-phenyl]-2,3-dihydro-isoindol-1-one] displayed a Ki of 0.014 µM. For `CN(C)c1cccc(-c2ccc3c(c2)C(=O)N([C@H]2CN4CCC2CC4)C3)c1` [Example 71, 2-(R)-1-Aza-bicyclo[2.2.2]oct-3-yl-6-(3-dimethylamino-phenyl)-2,3-dihydro-isoindol-1-one] the value was 0.0042 µM; for `CSc1cccc(-c2ccc3c(c2)C(=O)N([C@H]2CN4CCC2CC4)C3)c1` [Example 72, 2-(R)-1-Aza-bicyclo[2.2.2]oct-3-yl-6-(3-methylsulfanyl-phenyl)-2,3-dihydro-isoindol-1-one], 0.037 µM.
